# Marks after values point to notes of the source that are not given here.
# Key:
# [1] = test system: Mycoplasma Pneumoniae (MP); assay: Inflammatory factors in lung tissue of MP-infected mice (ELISA); format: in vivo, BALB/C mice; conditions: 4 days
# Description: […] Each group consisted of 10 mice, with an equal number of males and females. Except for the normal control group, all mice were lightly anesthetized with isoflurane and infected intranasally with Mycoplasma Pneumoniae (50 μl per mouse) for three consecutive days. On the day of infection, each treatment group received nebulized medication once daily for four consecutive days, while the normal control group and model control group received nebulized saline under the same conditions. On the fifth day, the mice were weighed, sacrificed by cervical dislocation, and their lung tissues were dissected, weighed, and used to calculate the lung index and lung index inhibition rate; measure the levels of inflammatory factors in the lung tissue; measure the serum CRP levels; and conduct pathological examinations of the lung tissue. The results were statistically analyzed using the t-test for intergroup comparisons.
# (1) Sample Collection and Storage: Tissue Homogenate Samples: After weighing, lung tissues were collected from 8 mice in each group and stored at −80° C. The MP Fastprep-24 5G Rapid Sample Preparation System was used to homogenize the tissues, followed by centrifugation at […] and 3000 r/min for 10 minutes using a low-temperature high-speed centrifuge. The supernatant was then aspirated, aliquoted, and stored at −80° C. for future use, avoiding repeated freeze-thaw cycles.
# (2) The microplate, which had been equilibrated to room temperature, was removed from the sealed bag. Different concentrations of standards were added to the corresponding wells, with 50 μL per well. For experimental samples, 10 μL of sample was added to each well, followed by 40 μL of diluent. Except for the blank wells, 100 μL of HRP (Horseradish Peroxidase) was added to each well. The reaction wells were sealed with sealing tape and incubated at 37° C. for 1 hour. The plate was then washed with wash buffer four times. After the final wash, the plate was inverted and all residual liquid was patted dry on absorbent paper. 50 μL of both Substrate A and Substrate B were added to each well. The reaction wells were then sealed with sealing tape and incubated at 37° C. for 15 minutes. After that, 50 μL of stop solution was added to each well, and the absorbance at 450 nm was measured using a microplate reader within 15 minutes. The results were then calculated.
# [2] = test system: Mycoplasma Pneumoniae (MP); assay: Pathological changes in lung tissue of MP-infected mice (HE staining); format: in vivo, BALB/C mice; parameters: Alveolitis Lesion Degree / Bronchial Damage / Histological Damage Degree: scale not given here
# Description: Fifty BALB/C mice, weighing 14±1 g, were randomly divided into five groups: a normal control group, a model control group, an azithromycin control group, a high-dose Genipin-1-β-D-gentiobioside group (75 mg/ml) with 15-minute nebulization, and a low-dose Genipin-1-β-D-gentiobioside group (37.5 mg/ml) with 15-minute nebulization. Each group consisted of 10 mice, with an equal number of males and females. Except for the normal control group, all mice were lightly anesthetized with isoflurane and infected intranasally with Mycoplasma Pneumoniae (50 μl per mouse) for three consecutive days. On the day of infection, each treatment group received nebulized medication once daily for four consecutive days, while the normal control group and model control group received nebulized saline under the same conditions. On the fifth day, the mice were weighed, sacrificed by cervical dislocation, and their lung tissues were dissected, weighed, and used to calculate the lung index and lung index inhibition rate; measure the levels of inflammatory factors in the lung tissue; measure the serum CRP levels; and conduct pathological examinations of the lung tissue. The results were statistically analyzed using the t-test for intergroup comparisons.
# 2.4 Pathological Changes in Mouse Lung Tissue (HE Staining Method)
# [3] = test system: SARS-CoV-2; assay: Protective effect against death in SARS-CoV-2 infected mice; format: in vivo, hACE2 transgenic C57BL/6 mice; conditions: for Number of Survivors / Number of Deaths: 8 mice; for Number of Deaths: 5-day
# Description: 1.1 Test Drug: Genipin-1-β-D-gentiobioside. […] Dosage for mice: 37.5 mg/kg and 75 mg/kg, administered by intraperitoneal injection once daily for 5 consecutive days.
# 1.2 Experimental Animals: human angiotensin-converting enzyme 2 (hACE2) transgenic C57BL/6 mice, aged 6˜7 weeks, weighing 18˜25 g, a total of 32 mice provided by GemPharmatech Co., Ltd., with a license number of SCXK (Su) 2018-008.
# 2.1 Grouping and Drug Administration: hACE2 transgenic C57BL/6 mice were divided into four groups, namely the blank control group, the SARS-CoV-2 infection group, the Genipin-1-β-D-gentiobioside (37.5 mg/kg) treatment group, and the Genipin-1-β-D-gentiobioside (75 mg/kg) treatment group, with 8 mice in each group. Except for the normal group, which received intranasal administration of Phosphate Buffered Saline (PBS), the other groups were infected with 10^4 Plaque Forming Unit (PFU) of Severe Acute Respiratory Syndrome Coronavirus 2 (SARS-CoV-2) virus via intranasal instillation. Two hours' post-infection, the treatment groups received intraperitoneal injections of the drug once daily for 5 consecutive days. Mouse deaths were recorded daily after infection, and the 5-day mortality rate was calculated. At the end of the experiment, the lung tissues were collected and homogenized for virus titer detection.
# [4] = Median particle size of nebulized test drug solutions; format: physicochemical
# Description: 1. Genipin-1-β-D gentiobioside 75 mg/ml group, median particle size is 2.02±0.06 μm; Genipin-1-β-D gentiobioside 37.5 mg/ml group, median particle size is 2.12±0.08 μm; Genipin-1-β-D gentiobioside […] group, median particle size is 2.01±0.09 μm; and Genipin-1-β-D gentiobioside 9.375 mg/ml group, median particle size is 2.07±0.06 μm. The nebulization time for each group is 25 minutes.
# [5] = High-Dose Group (75 mg/ml nebulization 15 min)
# [6] = Low-Dose Group (37.5 mg/ml nebulization 15 min)
# [7] = 37.5 mg/kg intraperitoneal once daily 5 days
# [8] = 75 mg/kg intraperitoneal once daily 5 days
smiles,measurement,setting,value
COC(=O)C1=CO[C@@H](O[C@@H]2O[C@H](CO[C@@H]3O[C@H](CO)[C@@H](O)[C@H](O)[C@H]3O)[C@@H](O)[C@H](O)[C@H]2O)[C@@H]2C(CO)=CC[C@H]12 [Genipin-1-β-D-gentiobioside],Inflammatory Factor Levels in Lung Tissue IL-1β,[1]; 37.5 mg/ml inhalation,147.59 ± 41.87 pg/mL
same,Inflammatory Factor Levels in Lung Tissue IL-6,[1]; 37.5 mg/ml inhalation,150.92 ± 7.65 pg/mL
same,Inflammatory Factor Levels in Lung Tissue TNF-α,[1]; 37.5 mg/ml inhalation,248.53 ± 93.97 pg/mL
same,Inflammatory Factor Levels in Lung Tissue IL-1β,[1]; 75 mg/ml inhalation,148.31 ± 10.97 pg/mL
same,Inflammatory Factor Levels in Lung Tissue IL-6,[1]; 75 mg/ml inhalation,163.92 ± 8.54 pg/mL
same,Inflammatory Factor Levels in Lung Tissue TNF-α,[1]; 75 mg/ml inhalation,312.79 ± 81.52 pg/mL
same,Alveolitis Lesion Degree,[2]; [5],30.40*
same,Bronchial Damage,[2]; [5],26.60*
same,Histological Damage Degree,[2]; [5],1.50 ± 0.55
same,Interstitial Inflammatory Cell Infiltration,[2]; [5],30.60*
same,Pathological changes of lung tissue compared with the model group,"[2]; High-Dose Group, HE staining",significantly reduced
same,Alveolitis Lesion Degree,[2]; [6],39.35
same,Bronchial Damage,[2]; [6],52.35
same,Histological Damage Degree,[2]; [6],1.90 ± 0.39
same,"Pathological changes (alveolar wall thickening, inflammatory cell infiltration) compared with the model group","[2]; Low-Dose Group, HE staining",significantly reduced
same,Death Rate,[3]; [7],37.5%
same,Survival Rate,[3]; [7],62.5%
same,Number of Survivors,[3]; [7],5
same,Number of Deaths,[3]; [7],3
same,Death Rate,[3]; [8],25%
same,Survival Rate,[3]; [8],75%
same,Number of Survivors,[3]; [8],6
same,Number of Deaths,[3]; [8],2
same,Median particle size,[4]; 9.375 mg/ml group,2.07±0.06 μm
same,Median particle size,[4]; 18.755 mg/ml group,2.01±0.09 μm
same,Median particle size,[4]; 37.5 mg/ml group,2.12±0.08 μm
same,Median particle size,[4]; 75 mg/ml group,2.02±0.06 μm

# Reference: US20250195553A1, “Use of Genipin-1-B-D-Gentiobioside in Preparation of Drug” (Guizhou Bailing Group Pharmaceutical Co., Ltd., priority 2023, published 2025)
